Consider 18 compounds from US20220363671A1, “GLUE DEGRADERS AND METHODS OF USE THEREOF” (NOVARTIS AG, priority 2019, published 2022).

A value given as a limit tells only on which side of the number the result lay.

Holding throughout (type): cell-based
In one experiment the target is T1, IKZF1 (Homo sapiens, UniProt Q13422+Q96SW2).
T1 construct: expressed in transfected cells
In words: Prolabel quantification of IKZF1 protein levels in GripTite 293 MSR cell line. As to conditions: Pro-label assay; for percent IKZF1 protein reduction at 10 µM: 24 h; for DC50: Ikaros degradation, read-out: IKZF1 EC50. An excerpt:
(§1) Example 18: Prolabel Quantification of IKZF1, GSPT1, or SALL4 protein levels in GripTite™ 293 MSR Cell line
(§2) The Prolabel system from DiscoverX was used to develop high-throughput and quantitative assays to measure changes in IKZF1, GSPT1, and SALL4 protein levels in response to compounds. The prolabel tag is derived from the alpha fragment of beta galactosidase and has the following protein sequence: mssnslavvlgrrdwenpgvtglnrlaahppfaswrnseeartdrpsqqlrsinge (SEQ ID NO. 1). The complementary fragment of beta-galactosidase (from DiscoverX), is added to the prolabel tag to form an active beta galactosidase enzyme whose activity can be precisely measured. In this way, the levels of a fusion protein with the prolabel tag can be quantified in cell lysates.
(§3) Lentiviral vectors, based on the Invitrogen pLenti6.2/V5 DEST backbone, were constructed that placed the prolabel tag upstream of IKZF1, GSPT1, or SALL4 and expressed the fusion protein from a CMV promoter.
(§4) To ensure moderate and consistent expression of the prolabel fusion proteins across all cells in the population, stable cell lines were constructed from cells expressing a single copy of the construct. Lentivirus packaged with the constructs was made using the Virapower kit from Invitrogen. Strongly adherent 293GT cell, GripTite 293 MSR cells from Thermo Fisher Scientific (Catalog number: R79507), were infected with the virus at low multiplicity of infection and selected by 5 μg/mL blasticidin for 2 weeks.
(§5) The levels of prolabel tagged fusion proteins in compound treated cell lines were measured as follows:
(§6) Day 1, Cells were diluted to 1.0×10^6 cells/mL in normal growth medium. 17.5 μL of cells were plated in each well of a solid white 384 well plate. Plates were incubated overnight in a 37° C. tissue culture incubator.
(§7) Day 2, Serial dilutions of compounds were made in 384 well plates from 10 mM stocks. 15 μL of DMSO was added to each well of a 384 well plate. In the first column, 15 μL of stock compound was added. The solution was mixed and 15 μL was transferred to the next column. This was repeated until 20 two-fold dilutions were prepared. 2.5 μL of the diluted compounds were transferred into 60 μL of cell culture medium in another 384 well plate, and mixed well. 2.5 μL of this mixture was added to the plated cells. The final DMSO concentration was 0.5% and the highest concentration of compound was 50 μM. Plates were incubated overnight (e.g., about 14 h, 18 h, or 24 h) in a 37° C. tissue culture incubator.
Day 3, Plates were removed from the incubator and allowed to equilibrate at room temperature for 30 minutes. Prolabel substrate (DiscoverX PathHunter Prolabel Detection Kit, User manual: 93-0180) was added as described by the manufacturers protocols. Plates were incubated at room temperature for three hours and luminescence was read using an Envision reader (Perkin Elmer) Data was analyzed and visualized using the Spotfire software package.

In a further experiment the target is T2, SALL4 (Homo sapiens, UniProt Q96SW2+Q9UJQ4).
T2 construct: expressed in transfected cells
T2 sequence (Q9UJQ4 whole entry, species assumed): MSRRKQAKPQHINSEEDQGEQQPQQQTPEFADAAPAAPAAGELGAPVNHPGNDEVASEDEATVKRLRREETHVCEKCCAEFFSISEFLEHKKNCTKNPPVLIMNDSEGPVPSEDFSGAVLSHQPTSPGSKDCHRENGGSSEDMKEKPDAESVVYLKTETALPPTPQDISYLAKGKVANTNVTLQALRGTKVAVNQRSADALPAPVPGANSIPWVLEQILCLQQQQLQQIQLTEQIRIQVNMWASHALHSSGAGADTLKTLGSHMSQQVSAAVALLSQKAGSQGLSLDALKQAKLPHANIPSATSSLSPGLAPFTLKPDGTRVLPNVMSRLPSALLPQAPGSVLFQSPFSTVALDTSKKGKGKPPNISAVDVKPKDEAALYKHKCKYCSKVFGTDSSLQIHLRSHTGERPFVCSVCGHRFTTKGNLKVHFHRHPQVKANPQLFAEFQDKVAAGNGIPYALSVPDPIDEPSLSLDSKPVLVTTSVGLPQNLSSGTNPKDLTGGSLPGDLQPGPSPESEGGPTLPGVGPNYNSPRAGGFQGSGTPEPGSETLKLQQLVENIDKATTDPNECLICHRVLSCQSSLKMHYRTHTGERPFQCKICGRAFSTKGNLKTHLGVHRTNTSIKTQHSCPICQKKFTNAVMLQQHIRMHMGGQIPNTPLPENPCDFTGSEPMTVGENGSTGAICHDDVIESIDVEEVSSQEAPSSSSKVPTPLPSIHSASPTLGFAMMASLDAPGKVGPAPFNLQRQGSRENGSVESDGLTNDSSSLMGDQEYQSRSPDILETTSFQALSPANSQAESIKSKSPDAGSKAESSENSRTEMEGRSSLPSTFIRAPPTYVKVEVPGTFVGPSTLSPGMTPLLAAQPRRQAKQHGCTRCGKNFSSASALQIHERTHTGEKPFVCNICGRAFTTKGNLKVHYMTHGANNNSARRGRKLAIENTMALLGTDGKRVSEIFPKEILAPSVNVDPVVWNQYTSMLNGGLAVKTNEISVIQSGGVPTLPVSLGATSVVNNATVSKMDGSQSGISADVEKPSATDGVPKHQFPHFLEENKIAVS
T2 sequence (Q96SW2 whole entry, species assumed): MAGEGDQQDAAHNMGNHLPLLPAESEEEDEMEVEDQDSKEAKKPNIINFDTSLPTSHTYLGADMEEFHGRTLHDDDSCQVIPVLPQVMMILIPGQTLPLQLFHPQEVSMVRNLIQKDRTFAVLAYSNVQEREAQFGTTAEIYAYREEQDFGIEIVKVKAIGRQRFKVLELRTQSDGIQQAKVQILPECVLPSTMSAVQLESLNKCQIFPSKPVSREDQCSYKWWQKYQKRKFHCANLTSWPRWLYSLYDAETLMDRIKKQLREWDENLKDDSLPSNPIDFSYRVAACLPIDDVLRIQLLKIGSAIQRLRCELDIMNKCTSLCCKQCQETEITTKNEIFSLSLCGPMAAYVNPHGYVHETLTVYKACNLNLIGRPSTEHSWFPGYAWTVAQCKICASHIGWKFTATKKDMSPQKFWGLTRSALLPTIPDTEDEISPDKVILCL
T2 sequence (Q16531 whole entry partner, species assumed): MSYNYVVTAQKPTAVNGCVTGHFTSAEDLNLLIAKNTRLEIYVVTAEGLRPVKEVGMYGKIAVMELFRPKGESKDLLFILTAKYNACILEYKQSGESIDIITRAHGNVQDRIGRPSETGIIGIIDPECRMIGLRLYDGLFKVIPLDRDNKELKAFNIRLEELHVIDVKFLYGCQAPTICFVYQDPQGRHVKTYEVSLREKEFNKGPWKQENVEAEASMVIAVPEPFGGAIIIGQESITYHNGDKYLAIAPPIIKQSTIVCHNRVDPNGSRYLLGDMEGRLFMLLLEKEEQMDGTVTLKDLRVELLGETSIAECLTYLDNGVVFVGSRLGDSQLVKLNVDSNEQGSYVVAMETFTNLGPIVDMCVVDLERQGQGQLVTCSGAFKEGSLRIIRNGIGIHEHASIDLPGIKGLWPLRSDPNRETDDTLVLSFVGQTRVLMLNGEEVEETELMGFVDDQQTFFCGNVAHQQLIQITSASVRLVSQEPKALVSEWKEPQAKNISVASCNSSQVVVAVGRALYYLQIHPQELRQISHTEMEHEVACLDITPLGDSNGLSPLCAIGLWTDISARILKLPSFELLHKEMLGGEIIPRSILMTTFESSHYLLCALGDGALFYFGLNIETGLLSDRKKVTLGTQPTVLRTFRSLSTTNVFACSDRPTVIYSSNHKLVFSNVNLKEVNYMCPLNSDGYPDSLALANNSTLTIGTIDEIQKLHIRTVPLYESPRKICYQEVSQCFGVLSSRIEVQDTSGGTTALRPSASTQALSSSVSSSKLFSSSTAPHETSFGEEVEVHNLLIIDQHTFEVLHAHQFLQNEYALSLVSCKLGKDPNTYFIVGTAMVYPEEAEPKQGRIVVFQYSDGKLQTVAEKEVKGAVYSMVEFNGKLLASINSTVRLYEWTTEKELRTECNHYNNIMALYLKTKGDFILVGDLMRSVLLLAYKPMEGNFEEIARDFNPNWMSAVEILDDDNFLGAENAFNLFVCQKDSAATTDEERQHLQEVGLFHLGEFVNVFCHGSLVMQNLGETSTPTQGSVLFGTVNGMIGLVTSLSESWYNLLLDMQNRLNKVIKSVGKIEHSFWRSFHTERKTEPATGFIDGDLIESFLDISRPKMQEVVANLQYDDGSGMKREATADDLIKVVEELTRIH
In words: Prolabel quantification of SALL4 protein levels in GripTite 293 MSR cell line. As to conditions: Pro-label assay.
From the text: as §1, §2
Lentiviral vectors, based on the Invitrogen pLenti6.2/V5 DEST backbone, were constructed that placed the prolabel tag upstream of IKZF1, GSPT1, or SALL4 and expressed the fusion protein from a CMV promoter. […]
The levels of prolabel tagged fusion proteins in compound treated cell lines were measured as follows: […]
(§8) Day 3, Plates were removed from the incubator and allowed to equilibrate at room temperature for 30 minutes. […] Plates were incubated at room temperature for three hours and luminescence was read using an Envision reader (Perkin Elmer) Data was analyzed and visualized using the Spotfire software package.

Another experiment has as its target T3, GSPT1 (Homo sapiens, UniProt P15170+Q96SW2).
T3 construct: expressed in transfected cells
Description: Prolabel quantification of GSPT1 protein levels in GripTite 293 MSR cell line. The note with it: Pro-label assay; for DC50: GSPT1 degradation, read-out: GSPT1 EC50.
From the text: as §1, §2, §3, §4, §5, §6, §7, §8

T3 sequence (P15170 whole entry, species assumed): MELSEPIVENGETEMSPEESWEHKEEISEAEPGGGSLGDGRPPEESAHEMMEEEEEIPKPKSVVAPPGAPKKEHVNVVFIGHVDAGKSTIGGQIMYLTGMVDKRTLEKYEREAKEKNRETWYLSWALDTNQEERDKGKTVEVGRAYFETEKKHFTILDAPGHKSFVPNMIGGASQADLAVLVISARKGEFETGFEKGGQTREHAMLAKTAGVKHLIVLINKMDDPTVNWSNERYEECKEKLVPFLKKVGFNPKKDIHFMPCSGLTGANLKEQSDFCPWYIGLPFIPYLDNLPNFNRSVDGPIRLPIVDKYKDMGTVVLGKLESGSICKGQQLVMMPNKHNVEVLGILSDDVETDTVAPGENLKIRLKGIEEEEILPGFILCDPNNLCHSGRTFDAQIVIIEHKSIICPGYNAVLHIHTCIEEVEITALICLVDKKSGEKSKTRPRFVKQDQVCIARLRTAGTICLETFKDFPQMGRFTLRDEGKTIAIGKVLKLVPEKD
T3 sequence (Q96SW2 whole entry, species assumed): as the sequence (Q96SW2 whole entry, species assumed) above
T3 sequence (Q16531 whole entry partner, species assumed): as the sequence (Q16531 whole entry partner, species assumed) above
T1 sequence (Q13422 whole entry, species assumed): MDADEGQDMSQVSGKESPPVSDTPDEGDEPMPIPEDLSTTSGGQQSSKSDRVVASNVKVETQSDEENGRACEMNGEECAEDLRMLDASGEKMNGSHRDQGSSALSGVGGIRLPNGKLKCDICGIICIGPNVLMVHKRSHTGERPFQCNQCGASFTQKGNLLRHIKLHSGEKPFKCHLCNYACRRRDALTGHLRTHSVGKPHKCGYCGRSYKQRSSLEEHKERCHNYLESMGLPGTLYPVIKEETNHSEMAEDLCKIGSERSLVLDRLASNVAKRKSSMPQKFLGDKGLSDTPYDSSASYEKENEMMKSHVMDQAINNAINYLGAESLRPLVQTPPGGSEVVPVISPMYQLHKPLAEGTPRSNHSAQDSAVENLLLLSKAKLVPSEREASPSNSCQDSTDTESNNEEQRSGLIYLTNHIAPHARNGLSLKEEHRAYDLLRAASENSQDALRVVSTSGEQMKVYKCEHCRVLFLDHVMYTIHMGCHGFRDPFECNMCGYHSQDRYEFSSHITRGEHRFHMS
T1 sequence (Q96SW2 whole entry, species assumed): as the sequence (Q96SW2 whole entry, species assumed) above
T1 sequence (Q16531 whole entry partner, species assumed): as the sequence (Q16531 whole entry partner, species assumed) above

`O=C1CCN(c2noc3ccc(Cl)cc23)C(=O)N1` [Compound I-14, 1-(5-Chlorobenzo[d]isoxazol-3-yl)dihydropyrimidine-2,4(1H,3H)-dione]: on IKZF1, the percent IKZF1 protein reduction at 10 µM is > 90% and the DC50 was 25 nM.

Turning to `O=C1CCN(c2coc3cc(I)ccc23)C(=O)N1` [Compound I-5, 1-(6-Iodobenzofuran-3-yl)dihydropyrimidine-2,4(1H,3H)-dione], at IKZF1, the percent IKZF1 protein reduction at 10 µM is > 90% and the DC50 came to 130 nM. Besides, at SALL4, the “SALL4 % protein Reduction at 10 μM, 24 h” value is reported as 60%.

With `Cc1ccc(CCOc2ccc3c(N4CCC(=O)NC4=O)noc3c2)cc1` [Compound I-15, 1-(6-(4-Methylphenethoxy)benzo[d]isoxazol-3-yl)dihydropyrimidine-2,4(1H,3H)-dione], at IKZF1, the percent IKZF1 protein reduction at 10 µM is 80% and the DC50 turned out to be 630 nM.

Take `O=c1ccn(-c2cnc3ccc(C4CCN(Cc5ccccc5)CC4)cc3c2)c(=O)[nH]1` [Compound I-16, 1-(6-(1-benzylpiperidin-4-yl)quinolin-3-yl)pyrimidine-2,4(1H,3H)-dione]: on IKZF1, the DC50 is > 20000 nM.

`Cc1ccc2c(N3CCC(=O)NC3=O)noc2c1` [Compound I-13, 1-(6-Methylbenzo[d]isoxazol-3-yl)dihydropyrimidine-2,4(1H,3H)-dione]: on IKZF1, the percent IKZF1 protein reduction at 10 µM is > 90% and the DC50 came to 6 nM.

As for `O=c1ccn(-c2cnc3cc(Br)ccn23)c(=O)[nH]1` [Compound I-18, 1-(7-Bromoimidazo[1,2-a]pyridin-3-yl)pyrimidine-2,4(1H,3H)-dione], the percent IKZF1 protein reduction at 10 µM on IKZF1 amounted to 40%.

Regarding `O=C1CCN(c2cnc3ccc(C4CCN(Cc5ccccc5)CC4)cn23)C(=O)N1` [Compound I-10, 1-(6-(1-Benzylpiperidin-4-yl)imidazo[1,2-a]pyridin-3-yl)dihydropyrimidine-2,4(1H,3H)-dione], on GSPT1, the “GSPT1 % protein reduction at 10 μM, 24 h” value is 80% and the DC50 was 170 nM. In addition, the “SALL4 % protein Reduction at 10 μM, 24 h” value on SALL4 was found to be 60%.

For the compound `O=C1CCN(c2coc3ccc(I)cc23)C(=O)N1` [Compound I-4, 1-(5-Iodobenzofuran-3-yl)dihydropyrimidine-2,4(1H,3H)-dione], at IKZF1, the percent IKZF1 protein reduction at 10 µM is 60% and the DC50 is 51 nM.

Take `O=C1CCN(c2cnc3cc(C4=CCN(Cc5ccccc5)CC4)ccn23)C(=O)N1` [Compound I-8, 1-(7-(1-Benzyl-1,2,3,6-tetrahydropyridin-4-yl)imidazo[1,2-a]pyridin-3-yl)dihydropyrimidine-2,4(1H,3H)-dione]: on IKZF1, the percent IKZF1 protein reduction at 10 µM is > 90% and the DC50 stood at 41 nM.

`O=C1CCN(c2coc3ccc(NC(=O)Oc4ccccc4)cc23)C(=O)N1` [Compound I-6, Phenyl (3-(2,4-dioxotetrahydropyrimidin-1(2H)-yl)benzofuran-5-yl)carbamate]: at IKZF1, the percent IKZF1 protein reduction at 10 µM came to 75% and the DC50 stood at 120 nM.

`CC(C)(C)c1ccc(C(=O)N2CC=C(c3ccn4c(N5CCC(=O)NC5=O)cnc4c3)CC2)cc1` [Compound I-9, 1-(7-(1-(4-(tert-Butyl)benzoyl)-1,2,3,6-tetrahydropyridin-4-yl)imidazo[1,2-a]pyridin-3-yl)dihydropyrimidine-2,4(1H,3H)-dione]: on GSPT1, the “GSPT1 % protein reduction at 10 μM, 24 h” value stood at 80% and the DC50 is 170 nM.

On to `Cc1ccc2occ(N3CCC(=O)NC3=O)c2c1` [Compound I-3, 1-(5-Methylbenzofuran-3-yl)dihydropyrimidine-2,4(1H,3H)-dione], for which, on IKZF1, the percent IKZF1 protein reduction at 10 µM was > 90% and the DC50 turned out to be 16 nM.

`CN(C)CC#Cc1ccc2c(N3CCC(=O)NC3=O)coc2c1` [Compound I-11, 1-(6-(3-(dimethylamino)prop-1-yn-1-yl)benzofuran-3-yl)dihydropyrimidine-2,4(1H,3H)-dione]: on IKZF1, the percent IKZF1 protein reduction at 10 µM is > 90% and the DC50 came out at 46 nM.

Consider `C#Cc1ccc2c(N3CCC(=O)NC3=O)coc2c1` [Compound I-2, 1-(6-Ethynylbenzofuran-3-yl)dihydropyrimidine-2,4(1H,3H)-dione], for which, at IKZF1, the percent IKZF1 protein reduction at 10 µM is > 90% and the DC50 amounted to 60 nM.

Take `O=C1CCN(c2coc3cc(C(=O)NCc4ccccc4)ccc23)C(=O)N1` [Compound I-12, N-benzyl-3-(2,4-dioxotetrahydropyrimidin-1(2H)-yl)benzofuran-6-carboxamide]: the DC50 at IKZF1 is > 20000 nM.

Turning to `O=C1CCN(c2cnn3cc(Cl)ccc23)C(=O)N1` [Compound I-7, 1-(6-Chloropyrazolo[1,5-a]pyridin-3-yl)dihydropyrimidine-2,4(1H,3H)-dione], at IKZF1, the percent IKZF1 protein reduction at 10 µM was > 90% and the DC50 is 6 nM.

For `O=C1CCN(c2coc3ccccc23)C(=O)N1` [Compound I-1, 1-(Benzofuran-3-yl)dihydropyrimidine-2,4(1H,3H)-dione], at IKZF1, the percent IKZF1 protein reduction at 10 µM worked out at 75% and the DC50 amounted to 57 nM.

Turning to `O=c1ccn(-c2cnc3cc(C4=CCN(Cc5ccccc5)CC4)ccn23)c(=O)[nH]1` [Compound I-17, 1-(7-(1-Benzyl-1,2,3,6-tetrahydropyridin-4-yl)imidazo[1,2-a]pyridin-3-yl)pyrimidine-2,4(1H,3H)-dione], on IKZF1, the percent IKZF1 protein reduction at 10 µM is 80% and the DC50 was 430 nM.
